ChEMBL document CHEMBL3600353, “In Vitro Activity of Epigallocatechin Gallate and Quercetin Alone and in Combination versus Clinical Isolates of Methicillin-Resistant Staphylococcus aureus” (2015)
Activity calls are given as the source filed them. The calls are words filed in the database; no cut-off is given here.

Columns and labels:
Staphylococcus aureus [1] = assay: Antibacterial activity against vancomycin-intermediate resistant Staphylococcus aureus Mu50 assessed as log reduction of colony forming unit at 0.28 mM after 24 hrs; assay type: functional, organism-based
Staphylococcus aureus [2] = assay: Antibacterial activity against methicillin-resistant Staphylococcus aureus isolate 6 by disk diffusion assay; assay type: functional
Staphylococcus aureus [3] = assay: Antibacterial activity against methicillin-resistant Staphylococcus aureus NCTC 12493 after 24 hrs by checkerboard assay in presence of quercetin; assay type: functional
Staphylococcus aureus [4] = assay: Antibacterial activity against Staphylococcus aureus ATCC 25923 after 24 hrs by checkerboard assay in presence of quercetin; assay type: functional
Staphylococcus aureus [5] = assay: Antibacterial activity against methicillin-resistant Staphylococcus aureus NCTC 12493 after 24 hrs by time kill assay; assay type: functional, organism-based
Staphylococcus aureus [6] = assay: Antibacterial activity against methicillin-resistant Staphylococcus aureus isolate 3 by disk diffusion assay; assay type: functional
Staphylococcus aureus [7] = assay: Antibacterial activity against methicillin-resistant Staphylococcus aureus isolate 7 by disk diffusion assay; assay type: functional
Staphylococcus aureus [8] = assay: Antibacterial activity against methicillin-resistant Staphylococcus aureus isolate 6 assessed as reduction of epigallocatechin gallate MIC after 24 hrs by checkerboard assay in presence of quercetin; assay type: functional; settings: isolate 6, 24 h
Staphylococcus aureus [9] = assay: Antibacterial activity against methicillin-sensitive Staphylococcus aureus ATCC 25923 at 0.28 mM after 24 hrs by time kill assay in presence of 0.42 mM of quercetin; assay type: functional, organism-based
Staphylococcus aureus [10] = assay: Antibacterial activity against methicillin-resistant Staphylococcus aureus isolate 8 assessed as reduction of epigallocatechin gallate MIC after 24 hrs by checkerboard assay in presence of quercetin; assay type: functional; settings: isolate 8, 24 h
Staphylococcus aureus [11] = assay: Antibacterial activity against vancomycin-intermediate resistant Staphylococcus aureus Mu50 after 24 hrs by checkerboard assay in presence of quercetin; assay type: functional
Staphylococcus aureus [12] = assay: Antibacterial activity against methicillin-resistant Staphylococcus aureus isolate 8 after 24 hrs by checkerboard assay in presence of quercetin; assay type: functional
Staphylococcus aureus [13] = assay: Antibacterial activity against methicillin-resistant Staphylococcus aureus NCTC 12493 after 24 hrs by checkerboard assay; assay type: functional; settings: NCTC 12493, 24 h
Staphylococcus aureus [14] = assay: Antibacterial activity against methicillin-resistant Staphylococcus aureus isolate 5 by disk diffusion assay; assay type: functional
Staphylococcus aureus [15] = assay: Antibacterial activity against methicillin-resistant Staphylococcus aureus NCTC 12493 at 0.28 mM after 4 hrs by time kill assay; assay type: functional, organism-based
Staphylococcus aureus [16] = assay: Antibacterial activity against methicillin-resistant Staphylococcus aureus NCTC 12493 assessed as log reduction of colony forming unit at 0.28 mM after 2 hrs; assay type: functional, organism-based
Staphylococcus aureus [17] = assay: Antibacterial activity against methicillin-sensitive Staphylococcus aureus ATCC 25923 at 0.56 mM after 24 hrs by time kill assay in presence of 0.42 mM of quercetin; assay type: functional, organism-based
Staphylococcus aureus [18] = assay: Antibacterial activity against vancomycin-intermediate resistant Staphylococcus aureus Mu50 at 0.56 mM after 24 hrs by time kill assay; assay type: functional, organism-based
Staphylococcus aureus [19] = assay: Antibacterial activity against methicillin-resistant Staphylococcus aureus isolate 2 after 24 hrs by checkerboard assay; assay type: functional; settings: isolate 2, 24 h
Staphylococcus aureus [20] = assay: Antibacterial activity against methicillin-resistant Staphylococcus aureus isolate 1 after 24 hrs by checkerboard assay in presence of quercetin; assay type: functional
Staphylococcus aureus [21] = assay: Antibacterial activity against methicillin-resistant Staphylococcus aureus isolate 5 assessed as reduction of epigallocatechin gallate MIC after 24 hrs by checkerboard assay in presence of quercetin; assay type: functional; settings: isolate 5, 24 h
Staphylococcus aureus [22] = assay: Antibacterial activity against methicillin-sensitive Staphylococcus aureus ATCC 25923 at 0.56 mM after 24 hrs by time kill assay in presence of 0.85 mM of quercetin; assay type: functional, organism-based
Staphylococcus aureus [23] = assay: Antibacterial activity against methicillin-resistant Staphylococcus aureus isolate 8 after 24 hrs by checkerboard assay; assay type: functional; settings: isolate 8, 24 h
Staphylococcus aureus [24] = assay: Antibacterial activity against Staphylococcus aureus ATCC 25923 assessed as reduction of epigallocatechin gallate MIC after 24 hrs by checkerboard assay in presence of quercetin; assay type: functional; settings: ATCC 25923, 24 h
Staphylococcus aureus [25] = assay: Antibacterial activity against methicillin-resistant Staphylococcus aureus isolate 6 after 24 hrs by checkerboard assay in presence of quercetin; assay type: functional
Staphylococcus aureus [26] = assay: Antibacterial activity against methicillin-sensitive Staphylococcus aureus ATCC 25923 after 24 hrs by time kill assay; assay type: functional, organism-based
Staphylococcus aureus [27] = assay: Antibacterial activity against vancomycin-intermediate resistant Staphylococcus aureus Mu50 assessed as reduction of epigallocatechin gallate MIC after 24 hrs by checkerboard assay in presence of quercetin; assay type: functional; settings: Mu50, 24 h
Staphylococcus aureus [28] = assay: Antibacterial activity against methicillin-resistant Staphylococcus aureus NCTC 12493 assessed as log reduction of colony forming unit at 0.28 mM after 24 hrs; assay type: functional, organism-based
Staphylococcus aureus [29] = assay: Antibacterial activity against methicillin-resistant Staphylococcus aureus isolate 1 assessed as reduction of epigallocatechin gallate MIC after 24 hrs by checkerboard assay in presence of quercetin; assay type: functional; settings: isolate 1, 24 h
Staphylococcus aureus [30] = assay: Antibacterial activity against methicillin-resistant Staphylococcus aureus NCTC 12493 assessed as log reduction of colony forming unit at 0.28 mM after 4 hrs; assay type: functional, organism-based
Staphylococcus aureus [31] = assay: Antibacterial activity against methicillin-sensitive Staphylococcus aureus ATCC 25923 at 0.28 mM after 24 hrs by time kill assay in presence of 0.2 mM of quercetin; assay type: functional, organism-based
Staphylococcus aureus [32] = assay: Antibacterial activity against methicillin-resistant Staphylococcus aureus isolate 4 after 24 hrs by checkerboard assay; assay type: functional; settings: isolate 4, 24 h
Staphylococcus aureus [33] = assay: Antibacterial activity against methicillin-resistant Staphylococcus aureus NCTC 12493 at 0.28 mM after 24 hrs by time kill assay; assay type: functional, organism-based
Staphylococcus aureus [34] = assay: Antibacterial activity against methicillin-resistant Staphylococcus aureus isolate 4 assessed as reduction of epigallocatechin gallate MIC after 24 hrs by checkerboard assay in presence of quercetin; assay type: functional; settings: isolate 4, 24 h
Staphylococcus aureus [35] = assay: Antibacterial activity against methicillin-resistant Staphylococcus aureus isolate 9 assessed as reduction of epigallocatechin gallate MIC after 24 hrs by checkerboard assay in presence of quercetin; assay type: functional; settings: isolate 9, 24 h
Staphylococcus aureus [36] = assay: Antibacterial activity against methicillin-resistant Staphylococcus aureus isolate 3 after 24 hrs by checkerboard assay; assay type: functional; settings: isolate 3, 24 h
Staphylococcus aureus [37] = assay: Antibacterial activity against vancomycin-intermediate resistant Staphylococcus aureus Mu50 after 24 hrs by time kill assay; assay type: functional, organism-based
Staphylococcus aureus [38] = assay: Antibacterial activity against methicillin-resistant Staphylococcus aureus isolate 7 after 24 hrs by checkerboard assay in presence of quercetin; assay type: functional
Staphylococcus aureus [39] = assay: Antibacterial activity against methicillin-resistant Staphylococcus aureus isolate 2 by disk diffusion assay; assay type: functional
Staphylococcus aureus [40] = assay: Antibacterial activity against methicillin-resistant Staphylococcus aureus isolate 7 after 24 hrs by checkerboard assay; assay type: functional; settings: isolate 7, 24 h
Staphylococcus aureus [41] = assay: Antibacterial activity against vancomycin-intermediate resistant Staphylococcus aureus Mu50 at 0.56 mM after 4 hrs by time kill assay; assay type: functional, organism-based
Staphylococcus aureus [42] = assay: Antibacterial activity against methicillin-resistant Staphylococcus aureus isolate 2 after 24 hrs by checkerboard assay in presence of quercetin; assay type: functional
Staphylococcus aureus [43] = assay: Antibacterial activity against methicillin-resistant Staphylococcus aureus isolate 3 after 24 hrs by checkerboard assay in presence of quercetin; assay type: functional
Staphylococcus aureus [44] = assay: Antibacterial activity against methicillin-resistant Staphylococcus aureus isolate 3 assessed as reduction of epigallocatechin gallate MIC after 24 hrs by checkerboard assay in presence of quercetin; assay type: functional; settings: isolate 3, 24 h
Staphylococcus aureus [45] = assay: Antibacterial activity against methicillin-resistant Staphylococcus aureus NCTC 12493 assessed as reduction of epigallocatechin gallate MIC after 24 hrs by checkerboard assay in presence of quercetin; assay type: functional; settings: NCTC 12493, 24 h
Staphylococcus aureus [46] = assay: Antibacterial activity against methicillin-resistant Staphylococcus aureus isolate 2 assessed as reduction of epigallocatechin gallate MIC after 24 hrs by checkerboard assay in presence of quercetin; assay type: functional; settings: isolate 2, 24 h
Staphylococcus aureus [47] = assay: Antibacterial activity against Staphylococcus aureus ATCC 25923 after 24 hrs by checkerboard assay; assay type: functional; settings: ATCC 25923, 24 h
Staphylococcus aureus [48] = assay: Antibacterial activity against methicillin-sensitive Staphylococcus aureus ATCC 25923 at 0.56 mM after 4 hrs by time kill assay; assay type: functional, organism-based
Staphylococcus aureus [49] = assay: Antibacterial activity against methicillin-resistant Staphylococcus aureus isolate 1 by disk diffusion assay; assay type: functional
Staphylococcus aureus [50] = assay: Antibacterial activity against methicillin-resistant Staphylococcus aureus isolate 5 after 24 hrs by checkerboard assay; assay type: functional; settings: isolate 5, 24 h
Staphylococcus aureus [51] = assay: Antibacterial activity against methicillin-resistant Staphylococcus aureus isolate 1 after 24 hrs by checkerboard assay; assay type: functional; settings: isolate 1, 24 h
Staphylococcus aureus [52] = assay: Antibacterial activity against methicillin-resistant Staphylococcus aureus isolate 8 by disk diffusion assay; assay type: functional
Staphylococcus aureus [53] = assay: Antibacterial activity against methicillin-resistant Staphylococcus aureus isolate 4 by disk diffusion assay; assay type: functional
Staphylococcus aureus [54] = assay: Antibacterial activity against methicillin-resistant Staphylococcus aureus isolate 7 assessed as reduction of epigallocatechin gallate MIC after 24 hrs by checkerboard assay in presence of quercetin; assay type: functional; settings: isolate 7, 24 h
Staphylococcus aureus [55] = assay: Antibacterial activity against vancomycin-intermediate resistant Staphylococcus aureus Mu50 after 24 hrs by checkerboard assay; assay type: functional; settings: Mu50, 24 h
Staphylococcus aureus [56] = assay: Antibacterial activity against methicillin-resistant Staphylococcus aureus isolate 9 after 24 hrs by checkerboard assay; assay type: functional; settings: isolate 9, 24 h
Staphylococcus aureus [57] = assay: Antibacterial activity against methicillin-sensitive Staphylococcus aureus ATCC 25923 at 0.56 mM after 24 hrs by time kill assay; assay type: functional, organism-based
Staphylococcus aureus [58] = assay: Antibacterial activity against methicillin-resistant Staphylococcus aureus isolate 6 after 24 hrs by checkerboard assay; assay type: functional; settings: isolate 6, 24 h
Staphylococcus aureus [59] = assay: Antibacterial activity against methicillin-resistant Staphylococcus aureus isolate 9 by disk diffusion assay; assay type: functional
Staphylococcus aureus [60] = assay: Antibacterial activity against methicillin-resistant Staphylococcus aureus isolate 9 after 24 hrs by checkerboard assay in presence of quercetin; assay type: functional
Staphylococcus aureus [61] = assay: Antibacterial activity against methicillin-resistant Staphylococcus aureus isolate 5 after 24 hrs by checkerboard assay in presence of quercetin; assay type: functional
Staphylococcus aureus [62] = assay: Antibacterial activity against methicillin-resistant Staphylococcus aureus isolate 4 after 24 hrs by checkerboard assay in presence of quercetin; assay type: functional

O=C(O[C@@H]1Cc2c(O)cc(O)cc2O[C@@H]1c1cc(O)c(O)c(O)c1)c1cc(O)c(O)c(O)c1 [EPIGALOCATECHIN GALLATE]
Activity (Staphylococcus aureus [1]): Active | inhibition zone (IZ) (Staphylococcus aureus [2]): >=19 mm | fractional inhibitory concentration index (FICI) (Staphylococcus aureus [3]): 0.06 | fractional inhibitory concentration index (FICI) (Staphylococcus aureus [4]): 0.07 | Activity (Staphylococcus aureus [5]): Active | inhibition zone (IZ) (Staphylococcus aureus [6]): >=19 mm | inhibition zone (IZ) (Staphylococcus aureus [7]): >=19 mm | MIC (Staphylococcus aureus [8]): 70 µM | Activity (Staphylococcus aureus [9]): Active | MIC (Staphylococcus aureus [10]): 70 µM | fractional inhibitory concentration index (FICI) (Staphylococcus aureus [11]): 0.09 | fractional inhibitory concentration index (FICI) (Staphylococcus aureus [12]): 0.31 | MIC (Staphylococcus aureus [13]): 140 µM | inhibition zone (IZ) (Staphylococcus aureus [14]): >=19 mm | Activity (Staphylococcus aureus [15]): Active | Activity (Staphylococcus aureus [16]): Active | Activity (Staphylococcus aureus [17]): Active | Activity (Staphylococcus aureus [18]): Active | MIC (Staphylococcus aureus [19]): 280 µM | fractional inhibitory concentration index (FICI) (Staphylococcus aureus [20]): 0.31 | MIC (Staphylococcus aureus [21]): 70 µM | Activity (Staphylococcus aureus [22]): Active | MIC (Staphylococcus aureus [23]): 280 µM | MIC (Staphylococcus aureus [24]): 20 µM | fractional inhibitory concentration index (FICI) (Staphylococcus aureus [25]): 0.31 | Activity (Staphylococcus aureus [26]): Active | MIC (Staphylococcus aureus [27]): 20 µM | Activity (Staphylococcus aureus [28]): Active | MIC (Staphylococcus aureus [29]): 70 µM | Activity (Staphylococcus aureus [30]): Active | Activity (Staphylococcus aureus [31]): Active | MIC (Staphylococcus aureus [32]): 280 µM | Activity (Staphylococcus aureus [33]): Active | MIC (Staphylococcus aureus [34]): 70 µM | MIC (Staphylococcus aureus [35]): 70 µM | MIC (Staphylococcus aureus [36]): 280 µM | Activity (Staphylococcus aureus [37]): Active | fractional inhibitory concentration index (FICI) (Staphylococcus aureus [38]): 0.31 | inhibition zone (IZ) (Staphylococcus aureus [39]): >=19 mm | MIC (Staphylococcus aureus [40]): 280 µM | Activity (Staphylococcus aureus [41]): Active | fractional inhibitory concentration index (FICI) (Staphylococcus aureus [42]): 0.2 | fractional inhibitory concentration index (FICI) (Staphylococcus aureus [43]): 0.31 | MIC (Staphylococcus aureus [44]): 70 µM | MIC (Staphylococcus aureus [45]): 4 µM | MIC (Staphylococcus aureus [46]): 40 µM | MIC (Staphylococcus aureus [47]): 560 µM | Activity (Staphylococcus aureus [48]): Active | inhibition zone (IZ) (Staphylococcus aureus [49]): 8 mm | MIC (Staphylococcus aureus [50]): 280 µM | MIC (Staphylococcus aureus [51]): 280 µM | inhibition zone (IZ) (Staphylococcus aureus [52]): >=19 mm | inhibition zone (IZ) (Staphylococcus aureus [53]): >=19 mm | MIC (Staphylococcus aureus [54]): 70 µM | MIC (Staphylococcus aureus [55]): 280 µM | MIC (Staphylococcus aureus [56]): 280 µM | Activity (Staphylococcus aureus [57]): Active | MIC (Staphylococcus aureus [58]): 280 µM | inhibition zone (IZ) (Staphylococcus aureus [59]): >=19 mm | fractional inhibitory concentration index (FICI) (Staphylococcus aureus [60]): 0.28 | fractional inhibitory concentration index (FICI) (Staphylococcus aureus [61]): 0.28 | fractional inhibitory concentration index (FICI) (Staphylococcus aureus [62]): 0.28
